Results taken from the NIST ThermoML archive (doi:10.1016/j.jct.2015.02.008).

How the values were obtained:
[1] = for molar entropy: 101.33 kPa, Vacuum adiabatic calorimetry
[2] = molar heat capacity at saturation pressure; settings: Crystal, Vacuum adiabatic calorimetry

Oc1cccc2ccccc12 [1-naphthol]
[1]
Settings	Triple point temperature [K]	molar entropy [J/K/mol]
5 K, Crystal	–	0.1164
10 K, Crystal	–	1.006
20 K, Crystal	–	5.712
30 K, Crystal	–	12.49
40 K, Crystal	–	19.88
50 K, Crystal	–	27.32
60 K, Crystal	–	34.57
70 K, Crystal	–	41.6
80 K, Crystal	–	48.37
90 K, Crystal	–	54.94
100 K, Crystal	–	61.3
120 K, Crystal	–	73.57
140 K, Crystal	–	85.45
160 K, Crystal	–	97.07
180 K, Crystal	–	108.59
200 K, Crystal	–	120.05
220 K, Crystal	–	131.53
240 K, Crystal	–	143.02
260 K, Crystal	–	154.55
280 K, Crystal	–	166.13
298.15 K, Crystal	–	176.67
300 K, Crystal	–	177.75
320 K, Crystal	–	189.4
340 K, Crystal	–	201.04
360 K, Crystal	–	212.69
368.49 K, Crystal	–	217.66
368.49 K, Liquid	–	283.48
380 K, Liquid	–	292.12
400 K, Liquid	–	306.76
420 K, Liquid	–	320.97
440 K, Liquid	–	334.8
Crystal, Adiabatic calorimetry	368.49	–

[1], Liquid
Settings	mass density [kg/m3]	vapor or sublimation pressure [kPa]
369.98 K, Inclined piston gauge	–	0.1033
373.12 K, Inclined piston gauge	–	0.1259
374.97 K, Inclined piston gauge	–	0.1406
383.13 K, Inclined piston gauge	–	0.2221
384.98 K, Inclined piston gauge	–	0.2455
393 K, Pycnometric method	1063	–
393.13 K, Inclined piston gauge	–	0.3779
394.98 K, Inclined piston gauge	–	0.4163
403.12 K, Inclined piston gauge	–	0.6229
404.96 K, Inclined piston gauge	–	0.6815
408.13 K, Inclined piston gauge	–	0.7902
413.12 K, Inclined piston gauge	–	0.9955
414.97 K, Inclined piston gauge	–	1.085
418.12 K, Inclined piston gauge	–	1.249
423.12 K, Inclined piston gauge	–	1.551
424.96 K, Inclined piston gauge	–	1.68
429.2 K, Twin ebulliometer	–	2
429.96 K, Inclined piston gauge	–	2.071
434.97 K, Inclined piston gauge	–	2.537
436.27 K, Twin ebulliometer	–	2.666
439.96 K, Inclined piston gauge	–	3.091
446.77 K, Twin ebulliometer	–	4
454.6 K, Twin ebulliometer	–	5.333
466.26 K, Twin ebulliometer	–	7.999
475.01 K, Twin ebulliometer	–	10.67
482.08 K, Twin ebulliometer	–	13.33
489.42 K, Twin ebulliometer	–	16.66
495.53 K, Twin ebulliometer	–	19.93
503.55 K, Twin ebulliometer	–	25.02
511.63 K, Twin ebulliometer	–	31.17
519.75 K, Twin ebulliometer	–	38.56
527.93 K, Twin ebulliometer	–	47.37
536.16 K, Twin ebulliometer	–	57.81
544.44 K, Twin ebulliometer	–	70.11
552.77 K, Twin ebulliometer	–	84.53
561.14 K, Twin ebulliometer	–	101.32
569.59 K, Twin ebulliometer	–	120.78

[2]
Settings	molar heat capacity [J/K/mol]
4.908 K	0.3991
5 K	0.4074
5.887 K	0.6735
6.773 K	0.9894
7.696 K	1.413
8.736 K	1.995
9.852 K	2.752
10 K	2.86
11.02 K	3.658
12.26 K	4.664
13.57 K	5.837
14.97 K	7.2
16.55 K	8.755
